Target: GPR17-GFP fusion protein (UniProt P42212+Q13304, F64L/I167T/S65C)
Test: Movement of GPR17-GFP fusion protein expressed in CHO cells into cells (confocal microscope)
Type: cell-based, human
Conditions: 100 μM, 45 minutes, 37° C.

NCC(=O)CCC(=O)O [ALA, 5-aminolevulinic acid]
localization of GPR17-GFP fusion protein (fluorescent images of GFP): moved in part to the cytoplasm
